Structures are written as SMILES. Bounds are passed on as bounds.

This assay addresses T1, AHR (UniProt P35869).
T1 construct: IC50
T1 sequence (P35869 1-848): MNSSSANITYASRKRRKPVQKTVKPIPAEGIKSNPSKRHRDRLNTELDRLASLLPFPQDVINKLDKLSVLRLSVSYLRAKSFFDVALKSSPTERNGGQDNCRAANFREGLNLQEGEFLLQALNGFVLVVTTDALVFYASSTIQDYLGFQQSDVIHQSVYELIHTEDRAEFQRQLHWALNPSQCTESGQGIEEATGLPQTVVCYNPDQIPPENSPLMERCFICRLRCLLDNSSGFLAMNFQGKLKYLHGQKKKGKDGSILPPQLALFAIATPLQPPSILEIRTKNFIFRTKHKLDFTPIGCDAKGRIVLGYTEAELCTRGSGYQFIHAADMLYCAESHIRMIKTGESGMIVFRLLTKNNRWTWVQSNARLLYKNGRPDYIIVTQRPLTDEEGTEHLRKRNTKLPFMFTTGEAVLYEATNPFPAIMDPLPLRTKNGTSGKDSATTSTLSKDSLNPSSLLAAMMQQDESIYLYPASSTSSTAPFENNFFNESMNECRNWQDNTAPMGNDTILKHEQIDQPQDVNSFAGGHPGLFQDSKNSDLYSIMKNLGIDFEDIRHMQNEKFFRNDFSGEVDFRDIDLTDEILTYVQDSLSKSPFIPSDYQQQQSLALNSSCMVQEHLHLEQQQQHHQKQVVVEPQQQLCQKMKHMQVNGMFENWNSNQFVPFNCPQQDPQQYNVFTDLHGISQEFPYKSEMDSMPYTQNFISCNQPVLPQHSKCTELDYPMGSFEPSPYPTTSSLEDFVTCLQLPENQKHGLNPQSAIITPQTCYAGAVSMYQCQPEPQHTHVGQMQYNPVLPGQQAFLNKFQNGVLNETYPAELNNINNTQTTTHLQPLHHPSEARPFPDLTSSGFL
Nature of the assay: DRE-Luciferase Reporter Assay (Alternate Method) (Example 1B). In kind it is cell-based, murine or human. Particulars: cell line and AHR activating ligand not specified. As to the method: AHR binds to Dioxin Responsive Elements (DRE) upstream of genes that it activates. One measure of AHR activity is activation of a reporter gene, such as luciferase, downstream of one or multiple DRE elements. Luciferase activity will reflect activation and inhibition of AHR in the cells expressing his reporter.
Murine Hepa1-6 or Hepa-1c1c7 or other murine cell line with a DRE-luciferase reporter either stably or transiently transfected were plated in media in plates (96-well, 384-well or other plates) and incubated overnight at 37° C. in a CO2 incubator or compound and agonist were added at the time of plating. Likewise, human HepG2 or other human cell line with a DRE-luciferase reporter either stably or transiently transfected were plated in media in plates (96-well, 384-well or other plates) and incubated overnight at 37° C. in a CO2 incubator or compound and agonist were added at the time of plating.
At the time that cells are plated or following incubation overnight, an AHR activating ligand, such as TCDD, kynurenine, ITE (2-(1H-indole-3-ylcarbonyl)-4-thiazolecarboxylic methyl ester), VAF347, BNF (beta-naphthoflavone), FICZ (6-formylindolo(3,2-b) carbazole or other AHR ligands, was added with or without AHR antagonist.
Cells were incubated for 4, 15 or 24 hours or another time point and then lysed for determination of luciferase activity as a read-out of the AHR activation or inhibition. Luciferase was measured with a commercial kit such as the Promega Luciferase kit or any kit or reagents that provide the luciferin substrate for measuring luciferase activity. The level of luciferase with only activating ligand added was the maximum signal while the luciferase with no ligand was the minimum signal. IC50 values were determined as the concentration which inhibits half of the luciferase activity.
For orientation: In a reporter assay the amount or activity of a reporter protein is the signal.

`CC(C)c1cnn2c(NC3CCc4[nH]c5ccccc5c4C3)nc(N3CCN(C)CC3)nc12` (stereo not drawn) [I-260] gave a 50% inhibitory concentration (IC50) greater than 1500 nM. For the compound `Fc1cncc(-c2nc(N[C@@H]3CCc4[nH]c5ccccc5c4C3)c3nccn3n2)c1` [I-256, (3R)—N-[2-(5-fluoro-3-pyridyl)imidazo[2,1-f][1,2,4]triazin-4-yl]-2,3,4,9-tetrahydro-1H-carbazol-3-amine], the half-maximal inhibitory concentration (IC50) was less than 500 nM.

The compound `CC(C)c1cnn2c(NC[C@@H](C)c3ccc(O)cc3)cc(-c3cncc(F)c3)nc12` [I-28a, 4-[(1S)-2-[[5-(5-fluoro-3-pyridyl)-3-isopropyl-pyrazolo[1,5-a]pyrimidin-7-yl]amino]-1-methyl-ethyl]phenol] displayed an IC50 greater than 1500 nM.

Compound `Oc1ccc2c(c1)CC(Nc1cc(-c3cncc(F)c3)nc3ccnn13)C2` (stereo not drawn) [I-52, 2-[[5-(5-Fluoro-3-pyridyl)pyrazolo[1,5-a]pyrimidin-7-yl]amino]indan-5-ol] showed a half-maximal inhibitory concentration (IC50) of 500 to 1000 nM. In the case of `CNC(=O)C(Cc1c[nH]c2ccccc12)Nc1cc(-c2cncc(F)c2)nc2c(C)cnn12` (stereo not drawn) [I-182], the IC50 is greater than 1500 nM.

For `CC(C)c1cnn2c(NCCc3c[nH]c4ccccc34)cc(-c3ccc4c(c3)OCO4)nc12` [I-246, 5-(1,3-Benzodioxol-5-yl)-N-[2-(1H-indol-3-yl)ethyl]-3-isopropyl-pyrazolo[1,5-a]pyrimidin-7-amine], the IC50 fell in the range of 1000 to 1500 nM. `CC(C)c1cnn2c(N[C@H]3CCc4[nH]ncc4C3)cc(-c3cncc(F)c3)nc12` (single isomer, unassigned) [I-42a] showed an IC50 greater than 1500 nM. Next, `CC(C)Oc1cc(NCCc2c[nH]c3ccccc23)nc(-c2cncc(C#N)c2)n1` [I-54, 5-[4-[2-(1H-indol-3-yl)ethylamino]-6-isopropoxy-pyrimidin-2-yl]pyridine-3-carbonitrile]: less than 500 nM. In the case of `NC(=O)c1cnn2c(NC3CCc4[nH]c5c(F)cccc5c4C3)cc(-c3cncc(F)c3)nc12` (stereo not drawn) [I-231], the IC50 is greater than 1500 nM. Take `CC(C)n1cnc2c(NCCc3c[nH]c4ccncc34)nc(-c3cncc(F)c3)nc21` [I-8, 2-(5-Fluoro-3-pyridyl)-9-isopropyl-N-[2-(1H-pyrrolo[3,2-c]pyridin-3-yl)ethyl]purin-6-amine]: the IC50 was greater than 1500 nM.

`CC(C)c1cnn2c(N[C@@H]3CCc4[nH]c5ccccc5c4C3)nc(N3CCCCC3)nc12` [I-264, (3R)—N-[8-Isopropyl-2-(1-piperidyl)pyrazolo[1,5-a][1,3,5]triazin-4-yl]-2,3,4,9-tetrahydro-1H-carbazol-3-amine]: the half-inhibitory concentration (IC50) was greater than 1500 nM. With `Cc1[nH]c2c(F)cc(F)cc2c1CCNc1cc(-c2cncc(F)c2)nc2ccnn12` [I-85, N-(2-(5,7-Difluoro-2-methyl-1H-indol-3-yl)ethyl)-5-(5-fluoropyridin-3-yl)pyrazolo[1,5-a]pyrimidin-7-amine] the figure was 500 to 1000 nM. As for `Fc1cncc(-c2nc(N[C@@H]3CCc4[nH]c5ccccc5c4C3)n3ncc(-c4ccn[nH]4)c3n2)c1` [I-253, (3R)—N-[2-(5-Fluoro-3-pyridyl)-8-(1H-pyrazol-5-yl)pyrazolo[1,5-a][1,3,5]triazin-4-yl]-2,3,4,9-tetrahydro-1H-carbazol-3-amine], the IC50 was less than 500 nM. `CC(C)c1cnn2c(N[C@@H]3CCc4[nH]c5ccccc5c4C3)nc(-c3cccnc3)nc12` [I-255, (3R)—N-[8-Isopropyl-2-(3-pyridyl)pyrazolo[1,5-a][1,3,5]triazin-4-yl]-2,3,4,9-tetrahydro-1H-carbazol-3-amine]: the half-inhibitory concentration (IC50) is less than 500 nM. As for `Cc1[nH]c2c(F)cc(F)cc2c1CCNc1cc(-c2cncc(F)c2)nc2c(C3CC3)cnn12` [I-87, 3-Cyclopropyl-N-(2-(5,7-difluoro-2-methyl-1H-indol-3-yl)ethyl)-5-(5-fluoropyridin-3-yl)pyrazolo[1,5-a]pyrimidin-7-amine], the IC50 is less than 500 nM. With `Cc1cnn2c(N[C@@H]3CCc4[nH]c5ccccc5c4C3)cc(-c3cncc(F)c3)nc12` [I-34, (3R)—N-[5-(5-Fluoro-3-pyridyl)-3-methyl-pyrazolo[1,5-a]pyrimidin-7-yl]-2,3,4,9-tetrahydro-1H-carbazol-3-amine] the figure was greater than 1500 nM. For `O=C(O)c1cnn2c(NCCc3c[nH]c4c(O)cccc34)cc(-c3cncc(F)c3)nc12` [I-142], the concentration for half-maximal inhibition (IC50) is greater than 1500 nM.

The compound `Fc1cncc(-c2cc(NC3Cc4cc5c(cc4C3)OCO5)n3nccc3n2)c1` [I-50, N-(6,7-Dihydro-5H-cyclopenta[f][1,3]benzodioxol-6-yl)-5-(5-fluoro-3-pyridyl)pyrazolo[1,5-a]pyrimidin-7-amine] yielded a 50% inhibitory concentration (IC50) greater than 1500 nM. `Cc1cnn2c(NCC(C)c3c[nH]c4ccccc34)cc(-c3cncc(F)c3)nc12` (stereo not drawn) [I-171, 5-(5-Fluoro-3-pyridyl)-N-[2-(1H-indol-3-yl)propyl]-3-methyl-pyrazolo[1,5-a]pyrimidin-7-amine] returned a half-maximal inhibitory concentration (IC50) of 1000 to 1500 nM. With `CC(C)c1cnn2c(NC3CCc4[nH]c5ccccc5c4C3)cc(-c3cccc(F)c3)nc12` (stereo not drawn) [I-238] the figure was greater than 1500 nM.

Regarding `Fc1cncc(-c2nc(NCCc3c[nH]c4ccccc34)n3ncc(Br)c3n2)c1` [I-141, 8-bromo-2-(5-fluoro-3-pyridyl)-N-[2-(1H-indol-3-yl)ethyl]pyrazolo[1,5-a][1,3,5]triazin-4-amine], the IC50 is less than 500 nM.

In turn, `CC(C)c1cnn2c(N[C@H]3CCc4c([nH]c5ccccc45)C3)nc(-c3cncc(F)c3)nc12` [I-146a] returned a 50% inhibitory concentration (IC50) greater than 1500 nM. With `CC(C)c1cnn2c(N[C@@H]3CCc4[nH]c5ccccc5c4C3)cc(-c3cncnc3)nc12` [I-229, (3R)—N-(3-Isopropyl-5-pyrimidin-5-yl-pyrazolo[1,5-a]pyrimidin-7-yl)-2,3,4,9-tetrahydro-1H-carbazol-3-amine] the figure was greater than 1500 nM.

`CC(C)c1cnn2c(N[C@@H]3CCc4[nH]c5ccccc5c4C3)cc(-c3ccccc3)nc12` [I-26, (3R)—N-(3-isopropyl-5-phenyl-pyrazolo[1,5-a]pyrimidin-7-yl)-2,3,4,9-tetrahydro-1H-carbazol-3-amine] came in with a half-inhibitory concentration (IC50) greater than 1500 nM.

The compound `CC(C)Oc1nc(N[C@@H]2CCc3[nH]c4ccccc4c3C2)nc(-c2cncc(F)c2)n1` [I-135, (3R)—N-[4-(5-Fluoro-3-pyridyl)-6-isopropoxy-1,3,5-triazin-2-yl]-2,3,4,9-tetrahydro-1H-carbazol-3-amine] had an IC50 of less than 500 nM.

Turning to `COc1cncc(-c2cc(NC3CCc4[nH]c5ccccc5c4C3)n3ncc(C(C)C)c3n2)c1` (stereo not drawn) [I-236], the IC50 is greater than 1500 nM. Compound `Fc1cncc(-c2nccc(NCCc3c[nH]c4ccccc34)n2)c1` [I-148] returned an IC50 greater than 1500 nM. With `Cc1cc(CCNc2cc(-c3cncc(F)c3)nc3c(C(C)C)cnn23)ccc1O` [I-102, 4-[2-[[5-(5-Fluoro-3-pyridyl)-3-isopropyl-pyrazolo[1,5-a]pyrimidin-7-yl]amino]ethyl]-2-methyl-phenol] the figure was less than 500 nM; with `CC(=O)Nc1ccc(CCNc2cc(-c3cncc(F)c3)nc3c(C)cnn23)cc1` [I-206], greater than 1500 nM; with `CC(C)Oc1nc(NCCc2c[nH]c3ccccc23)cc(-c2cncc(F)c2)n1` [I-80, 6-(5-Fluoro-3-pyridyl)-N-[2-(1H-indol-3-yl)ethyl]-2-isopropoxy-pyrimidin-4-amine], 500 to 1000 nM. Next, `Cc1[nH]c2c(F)cc(F)cc2c1CCNc1cc(-c2cncc(F)c2)nc2c(C(C)(C)C)cnn12` [I-91, 3-tert-Butyl-N-[2-(5,7-difluoro-2-methyl-1H-indol-3-yl)ethyl]-5-(5-fluoro-3-pyridyl)pyrazolo[1,5-a]pyrimidin-7-amine]: less than 500 nM. With `Cc1cnn2c(NCCc3c[nH]cn3)cc(-c3cncc(F)c3)nc12` [I-207] the figure was greater than 1500 nM. Compound `Cc1nn2c(NCCc3c[nH]c4ccccc34)cc(-c3cncc(F)c3)nc2c1C(C)C` [I-83, 5-(5-Fluoro-3-pyridyl)-N-[2-(1H-indol-3-yl)ethyl]-3-isopropyl-2-methyl-pyrazolo[1,5-a]pyrimidin-7-amine] yielded an IC50 of less than 500 nM.

As usually defined, the IC50 is the midpoint of a concentration-inhibition curve. A higher IC50 goes with weaker potency in that assay.

(Values after US11358969B2, “Indole AHR inhibitors and uses thereof” (Ikena Oncology, Inc., priority 2017, dated 2022).)
